Results published in ChEMBL document CHEMBL4017473, “Discovery of LRRK2 inhibitors by using an ensemble of virtual screening methods” (Bioorg Med Chem Lett, 2017).

Key:
[1] = target: Leucine-rich repeat serine/threonine-protein kinase 2 (Homo sapiens, UniProt Q5S007); assay: Inhibition of full length wild-type LRRK2 (unknown origin) using biotinylated ezrin/radaxin/meosin peptide as substrate measured after 1 hr
[2] = target: Leucine-rich repeat serine/threonine-protein kinase 2 (Homo sapiens, UniProt Q5S007, G2019S); assay: Inhibition of LRRK2 G2019S mutant (unknown origin) using biotinylated ezrin/radaxin/meosin peptide as substrate measured after 1 hr
Leucine-rich repeat serine/threonine-protein kinase 2 (Homo sapiens, UniProt Q5S007, G2019S), sequence (Q5S007 whole entry G2019S): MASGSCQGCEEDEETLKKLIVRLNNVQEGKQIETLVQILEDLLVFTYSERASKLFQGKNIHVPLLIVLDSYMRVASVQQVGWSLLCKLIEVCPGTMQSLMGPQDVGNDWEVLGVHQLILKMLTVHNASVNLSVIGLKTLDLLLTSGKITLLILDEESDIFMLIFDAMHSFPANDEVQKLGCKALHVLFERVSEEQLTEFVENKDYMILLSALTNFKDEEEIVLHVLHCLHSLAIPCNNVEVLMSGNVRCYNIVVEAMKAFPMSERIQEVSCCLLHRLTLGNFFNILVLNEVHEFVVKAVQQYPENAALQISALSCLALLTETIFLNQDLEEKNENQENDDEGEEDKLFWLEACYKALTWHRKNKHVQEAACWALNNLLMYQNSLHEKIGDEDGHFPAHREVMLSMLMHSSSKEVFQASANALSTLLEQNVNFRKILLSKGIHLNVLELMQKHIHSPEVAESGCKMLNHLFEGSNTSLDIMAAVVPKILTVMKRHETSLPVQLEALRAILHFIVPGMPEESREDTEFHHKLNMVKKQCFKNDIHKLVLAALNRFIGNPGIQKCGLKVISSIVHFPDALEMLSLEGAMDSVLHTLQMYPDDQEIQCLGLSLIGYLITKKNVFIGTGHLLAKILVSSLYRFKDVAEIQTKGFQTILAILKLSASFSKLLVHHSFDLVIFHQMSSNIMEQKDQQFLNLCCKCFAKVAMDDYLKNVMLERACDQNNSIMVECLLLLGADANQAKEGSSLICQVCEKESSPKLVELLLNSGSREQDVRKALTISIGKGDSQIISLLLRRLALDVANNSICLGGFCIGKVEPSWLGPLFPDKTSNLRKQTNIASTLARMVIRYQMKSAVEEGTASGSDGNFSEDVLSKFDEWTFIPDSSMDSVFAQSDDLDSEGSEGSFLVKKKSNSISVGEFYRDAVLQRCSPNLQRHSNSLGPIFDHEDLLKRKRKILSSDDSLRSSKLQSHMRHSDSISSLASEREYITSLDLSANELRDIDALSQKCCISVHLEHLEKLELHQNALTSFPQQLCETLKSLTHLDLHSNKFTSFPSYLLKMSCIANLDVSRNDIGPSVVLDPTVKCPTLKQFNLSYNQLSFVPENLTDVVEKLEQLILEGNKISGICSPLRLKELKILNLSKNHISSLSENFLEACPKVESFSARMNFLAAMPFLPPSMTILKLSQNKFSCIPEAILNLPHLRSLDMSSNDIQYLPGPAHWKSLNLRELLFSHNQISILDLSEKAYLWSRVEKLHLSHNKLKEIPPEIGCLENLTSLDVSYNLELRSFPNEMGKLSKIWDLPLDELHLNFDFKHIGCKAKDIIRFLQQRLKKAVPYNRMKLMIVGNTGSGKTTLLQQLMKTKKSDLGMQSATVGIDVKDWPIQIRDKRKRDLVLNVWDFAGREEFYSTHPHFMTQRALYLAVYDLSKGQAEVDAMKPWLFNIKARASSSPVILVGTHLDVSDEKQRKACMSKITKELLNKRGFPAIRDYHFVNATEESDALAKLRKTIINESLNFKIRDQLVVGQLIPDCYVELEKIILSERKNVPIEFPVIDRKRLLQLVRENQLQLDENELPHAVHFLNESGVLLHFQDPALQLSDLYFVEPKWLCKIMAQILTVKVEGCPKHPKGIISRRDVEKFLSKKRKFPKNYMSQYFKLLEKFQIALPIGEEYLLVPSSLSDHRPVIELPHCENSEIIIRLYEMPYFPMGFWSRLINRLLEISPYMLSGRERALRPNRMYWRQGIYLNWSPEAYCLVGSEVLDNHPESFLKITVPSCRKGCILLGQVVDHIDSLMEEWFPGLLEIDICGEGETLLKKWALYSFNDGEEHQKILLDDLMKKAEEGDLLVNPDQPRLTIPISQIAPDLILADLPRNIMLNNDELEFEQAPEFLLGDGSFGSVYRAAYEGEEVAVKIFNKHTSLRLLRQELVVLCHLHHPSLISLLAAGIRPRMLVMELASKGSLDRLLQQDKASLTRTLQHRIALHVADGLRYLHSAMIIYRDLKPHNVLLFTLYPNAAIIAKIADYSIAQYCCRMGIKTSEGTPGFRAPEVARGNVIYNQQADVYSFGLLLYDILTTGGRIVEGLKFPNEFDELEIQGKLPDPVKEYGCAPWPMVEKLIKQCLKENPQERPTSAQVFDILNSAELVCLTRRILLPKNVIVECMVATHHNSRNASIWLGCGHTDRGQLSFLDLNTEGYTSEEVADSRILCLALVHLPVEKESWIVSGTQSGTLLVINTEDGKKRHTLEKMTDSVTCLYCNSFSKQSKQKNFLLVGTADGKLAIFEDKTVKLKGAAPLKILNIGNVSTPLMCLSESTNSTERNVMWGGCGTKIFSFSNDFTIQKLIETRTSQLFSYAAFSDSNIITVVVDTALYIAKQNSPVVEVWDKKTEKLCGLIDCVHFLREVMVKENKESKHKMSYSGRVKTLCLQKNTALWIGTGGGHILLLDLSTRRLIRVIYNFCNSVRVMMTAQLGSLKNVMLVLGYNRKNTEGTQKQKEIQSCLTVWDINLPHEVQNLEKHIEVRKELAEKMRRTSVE

Leucine-rich repeat serine/threonine-protein kinase 2 (Homo sapiens, UniProt Q5S007), sequence (Q5S007 whole entry): as the sequence (Q5S007 whole entry G2019S) above, with S2019G counted along it

Question: Cc1ccccc1Nc1nc2ccc(-c3cc(C)c(O)c(C)c3)cn2n1 was tested. Which IC50 [1] did it give?
Answer: Its IC50 is 10 nM.

Question: Which IC50 [1] does the source give for C[C@@H](Nc1c(C(N)=O)nnc2cc(-c3ccncc3)ccc12)C1CC1 here?
Answer: The IC50 was at most 6 nM.

Question: For COc1cc(N2CCOCC2)ccc1Nc1ncc(F)c(Nc2ccccc2NS(C)(=O)=O)n1, which IC50 [1] is on record?
Answer: Its IC50 is 1.3 nM.

Question: And the IC50 [2]?
Answer: Its IC50 is 1.9 nM.

Question: With c1cc(-c2n[nH]c3ccnc(OC4CCOCC4)c23)cc(N2CCCC2)n1 as the compound, how does the IC50 [1] read?
Answer: The IC50 was 3 nM.

Question: NC(=O)c1ccc(Nc2nc(N3CCOCC3)c3ccccc3n2)cc1 was tested. Which IC50 [1] did it give?
Answer: Its IC50 is 825 nM.

Question: What about the IC50 [2] of the same compound?
Answer: The IC50 was 633 nM.

Question: Which IC50 [2] does the source give for Clc1c[nH]c2ncc(-c3cncc(N4CCOCC4)n3)cc12 here?
Answer: The IC50 was at most 500 nM.

Question: CCn1c(NC(=O)c2ccnc(-n3ccnc3)c2)nc2ccccc21 was tested. Which IC50 [1] did it give?
Answer: Its IC50 is 343 nM.

Question: What about the IC50 [2] of the same compound?
Answer: Its IC50 is 274 nM.

Question: Which IC50 [1] does the source give for CN(C)S(=O)(=O)c1ccc(C(=O)Nc2nc3ccccc3n2-c2ccccc2)o1 here?
Answer: The IC50 was over 10000 nM.

Question: And the IC50 [2]?
Answer: The IC50 was over 10000 nM.

Question: For COc1cccc(Nc2nc(NCCO)c3nc[nH]c3n2)c1, which IC50 [1] is on record?
Answer: Its IC50 is 84 nM.

Question: And the IC50 [2]?
Answer: Its IC50 is 48 nM.

Question: Which results are given for CCOc1ccc(Nc2nc(N3CCOCC3)c3nc[nH]c3n2)cc1?
Answer: IC50 [1]: 351 nM; IC50 [2]: 355 nM

Question: With O=c1[nH]ccc2nc(N3CCC(O)CC3)nc(Nc3cccc(C(F)(F)F)c3)c12 as the compound, how does the Ki [1] read?
Answer: Its Ki is 54 nM.
